Experimental data: patent publication US5620958A, “Bradykinin antagonists” (Coretech, Inc., priority 1994, dated 1997)
Numbered stars: 1 amine (or outer) side, 2 acyl side, 3 side chain; on linkers, the order of the positions; unused ones are H or OH. Bridge positions count the residues as written; N and C are the ends. Square brackets hold non-standard residues; d marks the D form. Peptide text beside a SMILES is read from it. I, II: the chains in the order shown. BMH = O=C1CC([*:1])C(=O)N1CCCCCCN1C(=O)CC([*:2])C1=O; Oic = O=C(O)[C@@H]1C[C@@H]2CCCC[C@@H]2N1; Hyp = O=C(O)[C@@H]1C[C@@H](O)CN1; dTic = O=C(O)[C@H]1Cc2ccccc2CN1

What was measured:
[1] = biological target: T1, BK2 receptor (Cavia porcellus, UniProt O70526); assay: guinea-pig ileum (GPI) in vitro, antagonism of BK; type: cell-based; conditions: Table B; read-out: pA2 GUINEA PIG ILEUM (converted)
T1 construct: tested for activity on guinea pig ileum in vitro on the standard tissue bath/strain gauge system; from tissue; host or cells: guinea pig ileum
T1 sequence (O70526 1-372): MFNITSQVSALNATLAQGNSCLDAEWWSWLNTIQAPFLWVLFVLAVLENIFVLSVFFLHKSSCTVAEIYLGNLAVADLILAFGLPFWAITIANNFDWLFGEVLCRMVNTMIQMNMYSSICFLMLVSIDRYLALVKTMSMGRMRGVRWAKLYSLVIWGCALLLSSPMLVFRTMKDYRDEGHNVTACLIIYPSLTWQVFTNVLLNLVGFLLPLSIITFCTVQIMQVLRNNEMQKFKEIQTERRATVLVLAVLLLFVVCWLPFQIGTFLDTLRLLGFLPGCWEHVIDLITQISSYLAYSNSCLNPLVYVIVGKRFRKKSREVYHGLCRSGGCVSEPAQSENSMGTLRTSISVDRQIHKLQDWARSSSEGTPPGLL
Protocol: Thus, in vitro studies were performed on standard assay systems, namely, guinea-pig ileum (GPI), rat uterus (RU) and rabbit jugular vein (RJV). […] The potency of each compound was assessed as a pA2 value according to the method of Arunlakshana & Schild, Br. J. Pharmacol. Chemother., 1.4:48-58 (1959). The pA2 can be defined as the negative logarithm of the molar concentration of the antagonist in the presence of which the potency of the agonist is reduced two-fold, i.e., twice the amount of agonist is required to produce a given response in the presence of, than in the absence of, the antagonist. A high potency of antagonism is indicated by a high pA2 value, i.e., a low concentration of antagonist is effective.
The percentage recovery (% Rec) was also determined for compounds with respect to each assay.
The various compounds identified in Table B below were prepared following the procedure of Example 1 with the Cys moiety introduced into the parent CP-0088 at the position indicated followed by reaction between the sulfhydryl group of the Cys residue and BMH to provide dimers as indicated. The Cys-modified monomers and the resultant dimers were tested for activity on guinea pig ileum in vitro on the standard tissue bath/strain gauge system as before.

[2] = biological target: T2, BK2 receptor (Rattus norvegicus, UniProt P25023); assay: cell-based
T2 sequence (P25023 1-396): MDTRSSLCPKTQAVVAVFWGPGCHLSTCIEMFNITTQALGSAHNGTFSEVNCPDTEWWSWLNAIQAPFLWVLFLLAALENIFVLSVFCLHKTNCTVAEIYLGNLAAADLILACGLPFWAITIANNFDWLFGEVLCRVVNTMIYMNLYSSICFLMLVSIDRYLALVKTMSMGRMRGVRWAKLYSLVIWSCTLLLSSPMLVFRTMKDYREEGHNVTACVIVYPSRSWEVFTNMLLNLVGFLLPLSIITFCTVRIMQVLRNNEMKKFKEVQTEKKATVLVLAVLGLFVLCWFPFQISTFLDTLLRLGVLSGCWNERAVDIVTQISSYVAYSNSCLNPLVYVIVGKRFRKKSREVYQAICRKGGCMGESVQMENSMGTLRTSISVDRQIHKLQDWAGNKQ

[3] = biological target: T2, BK2 receptor
[4] = biological target: T3, BK1 receptor (Oryctolagus cuniculus, UniProt P48748); assay: rabbit aorta in vitro, reversal of des-Arg^9 -BK contraction; type: cell-based; conditions: for IC50: Table L, negative log of molar concentration
T3 construct: when administered to an intact animal; from tissue; host or cells: whole rabbit (systemic arterial blood pressure), LPS-pretreated
T3 sequence (P48748 1-352): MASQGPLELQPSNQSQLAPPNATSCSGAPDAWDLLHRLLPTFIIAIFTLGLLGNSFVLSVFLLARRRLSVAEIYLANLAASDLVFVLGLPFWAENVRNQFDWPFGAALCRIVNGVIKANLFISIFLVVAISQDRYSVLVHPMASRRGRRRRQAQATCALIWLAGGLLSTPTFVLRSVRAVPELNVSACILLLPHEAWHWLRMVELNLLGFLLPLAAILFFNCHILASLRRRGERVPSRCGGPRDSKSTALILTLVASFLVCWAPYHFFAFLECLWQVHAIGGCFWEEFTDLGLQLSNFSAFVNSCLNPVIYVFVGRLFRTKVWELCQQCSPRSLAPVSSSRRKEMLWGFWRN

[5] = biological target: T3, BK1 receptor; assay: blood pressure response to BK1 agonist in LPS-pretreated rabbits; type: in vivo, rabbit; conditions: for OBSERVED ANTAGONIST ACTIVITY BK1: rabbits given LPS (10 μg) 20 hours before
[6] = biological target: T4, BK2 receptor (Oryctolagus cuniculus, UniProt Q28642); assay: blood pressure response to BK2 agonist in LPS-pretreated rabbits; type: in vivo, rabbit; set-up: key to OBSERVED ANTAGONIST ACTIVITY BK2: +: indicates complete blockade of the blood pressure response to the appropriate agonist; +/-: indicates partial blockade; -: indicates no observable effect at the dose indicated; conditions: for OBSERVED ANTAGONIST ACTIVITY BK2: rabbits given LPS (10 μg) 20 hours before
T4 construct: when administered to an intact animal; from tissue; host or cells: whole rabbit (systemic arterial blood pressure), LPS-pretreated
T4 sequence (Q28642 1-367): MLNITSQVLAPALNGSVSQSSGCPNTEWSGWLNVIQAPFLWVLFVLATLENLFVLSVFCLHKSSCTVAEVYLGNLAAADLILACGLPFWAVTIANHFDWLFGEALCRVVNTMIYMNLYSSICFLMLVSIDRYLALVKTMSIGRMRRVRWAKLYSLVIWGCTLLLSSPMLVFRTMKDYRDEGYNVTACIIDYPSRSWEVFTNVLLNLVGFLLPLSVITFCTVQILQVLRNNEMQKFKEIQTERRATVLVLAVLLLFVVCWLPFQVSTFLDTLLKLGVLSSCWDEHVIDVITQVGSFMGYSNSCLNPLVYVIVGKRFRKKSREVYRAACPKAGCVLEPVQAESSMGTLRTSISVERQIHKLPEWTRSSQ

[7] = biological target: T5, NK1 receptor (Cavia porcellus, UniProt P30547); assay: guinea pig ileum assay of NK1 receptor activity against substance P; type: cell-based; conditions: Table O; read-out: NK1 : GPI pA2 (± s.e.m.) (converted)
T5 construct: a standard guinea pig ileum assay of NK1 receptor activity; from tissue; host or cells: guinea pig ileum
Description: In order to illustrate the potential of blocking two different receptor populations with a single compound a consensus NK1 receptor antagonist (DArg-DPro-Lys-Pro-Gln-Asn-DPhe-Phe-DTrp-Leu-Nle) was synthesized. […] Once the activity of this reference ligand was established, a series of lysine containing monomers formed by the systematic substitution of a lysine residue sequentially through the reference peptide was synthesized.

[8] = FIG. 8c, rabbits after endotoxin pretreatment

T5 sequence (P30547 whole entry): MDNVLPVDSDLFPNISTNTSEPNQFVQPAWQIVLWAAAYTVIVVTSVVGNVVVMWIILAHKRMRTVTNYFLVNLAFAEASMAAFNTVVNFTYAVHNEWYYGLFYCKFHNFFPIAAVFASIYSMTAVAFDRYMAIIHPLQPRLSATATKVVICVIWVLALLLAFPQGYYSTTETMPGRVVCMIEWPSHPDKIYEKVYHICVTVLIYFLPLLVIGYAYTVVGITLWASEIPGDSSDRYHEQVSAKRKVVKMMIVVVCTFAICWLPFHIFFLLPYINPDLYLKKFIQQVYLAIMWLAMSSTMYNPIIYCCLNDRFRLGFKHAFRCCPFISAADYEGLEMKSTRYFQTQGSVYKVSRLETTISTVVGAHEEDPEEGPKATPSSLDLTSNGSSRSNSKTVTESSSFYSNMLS

SMILES	Kb [2]	IC50 [4]	OBSERVED ANTAGONIST ACTIVITY BK1 ([5]; 1 μg kg^-1 min^-1)	OBSERVED ANTAGONIST ACTIVITY BK1 ([5]; 3 μg kg^-1 min^-1)	OBSERVED ANTAGONIST ACTIVITY BK1 ([5]; 10 μg kg^-1 min^-1)	OBSERVED ANTAGONIST ACTIVITY BK2 ([6]; 1 μg kg^-1 min^-1)	OBSERVED ANTAGONIST ACTIVITY BK2 ([6]; 3 μg kg^-1 min^-1)	OBSERVED ANTAGONIST ACTIVITY BK2 ([6]; 10 μg kg^-1 min^-1)	other results
CC(C)C[C@H](NC(=O)[C@@H](Cc1ccccc1)NC(=O)[C@H](CO)NC(=O)[C@H](Cc1ccccc1)NC(=O)CNC(=O)[C@@H]1C[C@@H](O)CN1C(=O)[C@@H]1CCCN1C(=O)[C@H](CS)NC(=O)[C@H](N)CCCNC(=N)N)C(=O)N[C@@H](CCCNC(=N)N)C(=O)O [CP-0141] (HELM PEPTIDE1{[dR].C.P.[Hyp].G.F.S.[dF].L.R}$$$$V2.0)	> 1000 nM								Kb [1]: 794 nM; % REC MONOMER ([3]; Table C, rat uterus): 100%
CC(C)C[C@H](NC(=O)[C@@H]1CCCN1C(=O)[C@H](CO)NC(=O)[C@H](Cc1ccccc1)NC(=O)CNC(=O)[C@@H]1C[C@@H](O)CN1C(=O)[C@@H]1CCCN1C(=O)[C@H](CSC1CC(=O)N(CCCCCCN2C(=O)CC(SC[C@H](NC(=O)[C@H](Cc3ccccc3)NC(=O)CNC(=O)[C@@H]3C[C@@H](O)CN3C(=O)[C@@H]3CCCN3C(=O)[C@H](CCCNC(=N)N)NC(=O)[C@H](N)CCCNC(=N)N)C(=O)N[C@H](Cc3ccccc3)C(=O)N[C@@H](CC(C)C)C(=O)N[C@@H](CCCNC(=N)N)C(=O)O)C2=O)C1=O)NC(=O)[C@@H](N)CCCCN)C(=O)O (stereo partly drawn) [CP-0382] (HELM PEPTIDE1{[dR].R.P.[Hyp].G.F.C.[dF].L.R}|PEPTIDE2{K.C.P.[Hyp].G.F.S.P.L}|CHEM1{[O=C1CC([*:1])C(=O)N1CCCCCCN1C(=O)CC([*:2])C1=O]}$PEPTIDE1,CHEM1,7:R3-1:R1|PEPTIDE2,CHEM1,2:R3-1:R2$$$V2.0; N-terminus and C-terminus assumed)		631 nM							BK1 antagonism [4]: BK1 antagonism was retained; activity in the rat uterus BK2 receptor system [3]: substantial partial agonism; BK2 Rat Uterus pA2 ([3]; Table L): Agonist
CC(C)C[C@H](NC(=O)[C@@H]1CCCN1C(=O)[C@H](CO)NC(=O)[C@H](Cc1ccccc1)NC(=O)CNC(=O)[C@@H]1C[C@@H](O)CN1C(=O)[C@@H]1CCCN1C(=O)[C@H](CSC1CC(=O)N(CCCCCCN2C(=O)CC(SC[C@H](NC(=O)[C@H](Cc3ccccc3)NC(=O)CNC(=O)[C@@H]3C[C@@H](O)CN3C(=O)[C@@H]3CCCN3C(=O)[C@H](CCCNC(=N)N)NC(=O)[C@H](N)CCCNC(=N)N)C(=O)N[C@H](Cc3ccccc3)C(=O)N[C@@H](CC(C)C)C(=O)N[C@@H](CCCNC(=N)N)C(=O)O)C2=O)C1=O)NC(=O)[C@H](N)CCCNC(=N)N)C(=O)O (stereo partly drawn) [CP-0364] (HELM PEPTIDE1{[dR].R.P.[Hyp].G.F.C.[dF].L.R}|PEPTIDE2{[dR].C.P.[Hyp].G.F.S.P.L}|CHEM1{[O=C1CC([*:1])C(=O)N1CCCCCCN1C(=O)CC([*:2])C1=O]}$PEPTIDE1,CHEM1,7:R3-1:R1|PEPTIDE2,CHEM1,2:R3-1:R2$$$V2.0; N-terminus and C-terminus assumed)	5.01 nM	31.6 nM	+	+	+	+	+	+	block of BK1-mediated hypotensive response [5, 8]: capable of blocking the response profile to both agonists simultaneously; block of BK2-mediated hypotensive response [6, 8]: capable of blocking the response profile to both agonists simultaneously
N=C(N)NCCC[C@@H](N)C(=O)N[C@@H](CCCNC(=N)N)C(=O)N1CCC[C@H]1C(=O)N1C[C@H](O)C[C@H]1C(=O)NCC(=O)N[C@@H](Cc1ccccc1)C(=O)N[C@@H](CSC1CC(=O)N(CCCCCCN2C(=O)CC(SC[C@H](NC(=O)[C@H](N)CCCNC(=N)N)C(=O)N3CCC[C@H]3C(=O)N3C[C@H](O)C[C@H]3C(=O)NCC(=O)N[C@@H](Cc3ccccc3)C(=O)N[C@@H](CO)C(=O)N3Cc4ccccc4C[C@@H]3C(=O)N3[C@H](C(=O)O)C[C@@H]4CCCC[C@@H]43)C2=O)C1=O)C(=O)N1Cc2ccccc2C[C@@H]1C(=O)N1[C@H](C(=O)N[C@@H](CCCNC(=N)N)C(=O)O)C[C@@H]2CCCC[C@@H]21 (stereo partly drawn) [CP-0365] (I: H-[dR]RP[Hyp]GFC[dTic][Oic]R-OH / II: H-[dR]CP[Hyp]GFS[dTic][Oic]-OH; linker I:7-II:2 via BMH; N-terminus and C-terminus assumed)	3.98 nM	39.8 nM	-	+	+	-	+	+	
CCCC[C@H](NC(=O)[C@H](CC(C)C)NC(=O)[C@@H](Cc1c[nH]c2ccccc12)NC(=O)[C@H](Cc1ccccc1)NC(=O)[C@@H](Cc1ccccc1)NC(=O)[C@H](CC(N)=O)NC(=O)[C@H](CCCCNC(=O)CCCCCN1C(=O)CC(SC[C@H](NC(=O)[C@H](Cc2ccccc2)NC(=O)CNC(=O)[C@@H]2C[C@@H](O)CN2C(=O)[C@@H]2CCCN2C(=O)[C@H](CCCNC(=N)N)NC(=O)[C@H](N)CCCNC(=N)N)C(=O)N[C@H](Cc2ccccc2)C(=O)N[C@@H](CC(C)C)C(=O)N[C@@H](CCCNC(=N)N)C(=O)O)C1=O)NC(=O)[C@@H]1CCCN1C(=O)[C@H](CCCCN)NC(=O)[C@H]1CCCN1C(=O)[C@H](N)CCCNC(=N)N)C(N)=O (stereo partly drawn) [CP-0394] (HELM PEPTIDE1{[dR].[dP].K.P.K.N.[dF].F.[dW].L.[Nle].[am]}|PEPTIDE2{[dR].R.P.[Hyp].G.F.C.[dF].L.R}|CHEM1{[O=C1CC([*:2])C(=O)N1CCCCCC(=O)[*:1]]}$PEPTIDE1,CHEM1,5:R3-1:R1|PEPTIDE2,CHEM1,7:R3-1:R2$$$V2.0)	12.6 nM								Kb [7]: 1580 nM
